Several values for one entry are separate records, joined by “and”; a condition that tells them apart may be missing. Equal values may be shown once. Results filed as inconclusive are left out.
Tested on: MX-1 breast xenograft, intrarenal, nude mice, tumor weight
Experiment: NCI In Vivo Anticancer Drug Screen. Data for tumor model Human Mammary Carcinoma MX-1 Xenograft (intrarenal inoculation) in NU/NU BALB/C (nude) mice
Details: endpoint: mean tumor weight change, higher = larger tumour
Summary of the method: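 Transplantable tumors established in mice; animals dosed with compound or vehicle; survival or tumor size then recorded. Result reported as treated (T) divided by vehicle control (C).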

[1] = dose: 100.0 mg/kg/injection, schedule: Q04DX003 (ip), vehicle: Klucel (hydroxypropylcellulose) (HPC)
[2] = dose: 200.0 mg/kg/injection, schedule: Q04DX003 (ip), vehicle: Klucel (hydroxypropylcellulose) (HPC)
[3] = dose: 300.0 mg/kg/injection, schedule: Q04DX003 (sc), vehicle: saline with Tween-80
[4] = dose: 600.0 mg/kg/injection, schedule: Q04DX003 (sc), vehicle: saline with Tween-80

## CS(=O)(=O)OCCN(CCOS(C)(=O)=O)c1ccc(C=Nc2ccc(-c3csc(COc4ccccc4)n3)cc2)cc1
dose: 50.0 mg/kg/injection, schedule: Q01DX010 (sc), vehicle: Klucel (hydroxypropylcellulose) (HPC)
  T/C: 13 % of control
dose: 100.0 mg/kg/injection, schedule: Q01DX010 (sc), vehicle: Klucel (hydroxypropylcellulose) (HPC)
  T/C: -6 % of control
[1]
  T/C: 24 % of control
dose: 100.0 mg/kg/injection, schedule: Q04DX003 (sc), vehicle: Klucel (hydroxypropylcellulose) (HPC)
  T/C: 32 % of control
dose: 200.0 mg/kg/injection, schedule: Q01DX010 (sc), vehicle: Klucel (hydroxypropylcellulose) (HPC)
  T/C: -61 % of control
[2]
  T/C: 3 % of control
dose: 200.0 mg/kg/injection, schedule: Q04DX003 (sc), vehicle: Klucel (hydroxypropylcellulose) (HPC)
  T/C: 18 % of control

## COc1cccc2c1C(=O)c1c(O)c3c(c(O)c1C2=O)CC(O)(/C(C)=N/NC(=O)CCCCC(=O)N/N=C(\C)C1(O)Cc2c(O)c4c(c(O)c2C(OC2CC(N)C(O)C(C)O2)C1)C(=O)c1c(OC)cccc1C4=O)CC3OC1CC(N)C(O)C(C)O1 (configuration not stated)
dose: 12.5 mg/kg/injection, schedule: Q04DX003 (sc), vehicle: water
  T/C: 41 % of control
dose: 25.0 mg/kg/injection, schedule: Q04DX003 (sc), vehicle: water
  T/C: 5 % of control
dose: 50.0 mg/kg/injection, schedule: Q04DX003 (sc), vehicle: water
  T/C: -56 % of control

## CC1[C@@H]2CC=C3[C@H]4CCC5Cc6nc7c(nc6C[C@@]5(C)C4CC(=O)[C@]32CO[C@]12OC(C)(C)CC2O)CC1CC[C@@H]2C3=C[C@H]4O[C@@]5(O[C@@](C)(CO)C[C@@H]5O)C(C)[C@@]4(O)[C@]3(C)[C@@H](O)CC2[C@]1(C)C7 (some centres not stated)
dose: 12.5 micrograms/kg/injection, schedule: Q04DX003 (ip), vehicle: saline + alcohol
  T/C: 123 % of control
dose: 25.0 micrograms/kg/injection, schedule: Q04DX003 (ip), vehicle: saline + alcohol
  T/C: 78 % of control
dose: 50.0 micrograms/kg/injection, schedule: Q04DX003 (ip), vehicle: saline + alcohol
  T/C: 118 % of control
dose: 100.0 micrograms/kg/injection, schedule: Q04DX003 (ip), vehicle: saline + alcohol
  T/C: 100 % of control

## O=C1c2ccccc2C(=O)c2c1cn1c2Cc2ccccc2C1
dose: 50.0 mg/kg/injection, schedule: Q04DX003 (ip), vehicle: Klucel (hydroxypropylcellulose) (HPC)
  T/C: 72 % of control
[1]
  T/C: 37 % of control
[2]
  T/C: 26 % of control
dose: 400.0 mg/kg/injection, schedule: Q04DX003 (ip), vehicle: Klucel (hydroxypropylcellulose) (HPC)
  T/C: 35 % of control

## O=[N+]([O-])c1ccc(N2CCOCC2)c2c1no[n+]2[O-]
dose: 150.0 mg/kg/injection, schedule: Q04DX003 (sc), vehicle: saline with Tween-80
  T/C: 99 % of control
[3]
  T/C: 55 % of control
[4]
  T/C: 74 % of control
dose: 1200.0 mg/kg/injection, schedule: Q04DX003 (sc), vehicle: saline with Tween-80
  T/C: 63 % of control

## CN(Cc1cnc2nc(N)nc(N)c2n1)c1ccc(C(=O)NC(CCC(=O)OCc2cc3c(cc2Cl)OCO3)C(=O)OCc2cc3c(cc2Cl)OCO3)cc1 (configuration not stated)
dose: 7.5 mg/kg/injection, schedule: Q04DX003 (ip), vehicle: saline with Tween-80
  T/C: 75 % of control

## CN1CCN(CN2C(=O)C3C4C=CC(C3C2=O)C2C3C(=O)N(CN5CCN(C)CC5)C(=O)C3C42)CC1 (configuration not stated)
dose: 9.3 mg/kg/injection, schedule: Q04DX003 (ip), vehicle: water
  T/C: 98 % of control
dose: 18.75 mg/kg/injection, schedule: Q04DX003 (ip), vehicle: water
  T/C: 106 % of control
dose: 25.0 mg/kg/injection, schedule: Q04DX003 (ip), vehicle: water
  T/C: 67 % of control
dose: 37.5 mg/kg/injection, schedule: Q04DX003 (ip), vehicle: water
  T/C: 83 % of control
dose: 50.0 mg/kg/injection, schedule: Q04DX003 (ip), vehicle: water
  T/C: 52 % of control
dose: 75.0 mg/kg/injection, schedule: Q04DX003 (ip), vehicle: other
  T/C: 122 % of control
dose: 75.0 mg/kg/injection, schedule: Q04DX003 (ip), vehicle: water
  T/C: 72 % of control and 94 % of control
dose: 100.0 mg/kg/injection, schedule: Q04DX003 (ip), vehicle: water
  T/C: 45 % of control

## CN(C)N=Nc1ccc(C(N)=O)cc1
dose: 50.0 mg/kg/injection, schedule: Q04DX003 (ip), vehicle: saline with Tween-80
  T/C: 85 % of control
dose: 100.0 mg/kg/injection, schedule: Q04DX003 (ip), vehicle: saline with Tween-80
  T/C: 78 % of control
dose: 200.0 mg/kg/injection, schedule: Q04DX003 (ip), vehicle: saline with Tween-80
  T/C: 80 % of control

## Nc1ncnc2c1c1c(=O)[nH]c(=O)[nH]c1n2C1OC(CO)C(O)C1O (configuration not stated)
dose: 112.5 mg/kg/injection, schedule: Q04DX003 (sc), vehicle: distilled water + Tween-80
  T/C: 62 % of control
dose: 225.0 mg/kg/injection, schedule: Q04DX003 (sc), vehicle: distilled water + Tween-80
  T/C: 63 % of control
dose: 450.0 mg/kg/injection, schedule: Q04DX003 (sc), vehicle: distilled water + Tween-80
  T/C: 31 % of control
dose: 900.0 mg/kg/injection, schedule: Q04DX003 (sc), vehicle: distilled water + Tween-80
  T/C: 25 % of control

## Nc1nc([Se]c2nc(N)nc3c2ncn3C2OC(CO)C(O)C2O)c2ncn(C3OC(CO)C(O)C3O)c2n1 (configuration not stated)
dose: 100.0 mg/kg/injection, schedule: Q04DX003 (ip), vehicle: distilled water + Tween-80
  T/C: 77 % of control
dose: 200.0 mg/kg/injection, schedule: Q04DX003 (ip), vehicle: distilled water + Tween-80
  T/C: 78 % of control
dose: 400.0 mg/kg/injection, schedule: Q04DX003 (ip), vehicle: distilled water + Tween-80
  T/C: 34 % of control

## CCc1ccc(C2=C(O)C(=O)C(c3ccc(CC)cc3)=C(O)C2=O)cc1
dose: 200.0 mg/kg/injection, schedule: Q04DX003 (sc), vehicle: saline with Tween-80
  T/C: 67 % of control

## COc1cc2c(oc(=O)c3cc(C)cc(OC)c32)c2c(C3OC(C)C(O)C(C)(O)C3O)ccc(O)c12 (configuration not stated)
dose: 12.5 mg/kg/injection, schedule: Q04DX003 (ip), vehicle: DMSO
  T/C: 97 % of control and 106 % of control
dose: 50.0 mg/kg/injection, schedule: Q04DX003 (ip), vehicle: DMSO
  T/C: 48 % of control and 63 % of control

## [NH-]C(CCC(N)=O)C(=O)O.[NH-]C(CCC(N)=O)C(=O)O.[Zn+2] (configuration not stated)
dose: 75.0 mg/kg/injection, schedule: Q04DX003 (ip), vehicle: saline with Tween-80
  T/C: 97 % of control

## C=C1C(O)C2(O)OCC34C(CC5C(C)=CC(=O)C(O)C5(C)C23)OC(=O)C(OC(=O)C/C=C/CCCCCCCC)C14 (configuration not stated)
dose: 12.5 mg/kg/injection, schedule: Q04DX003 (ip), vehicle: saline + alcohol
  T/C: 38 % of control

## COc1cc2c(cc1OC)-c1c3c(cc4c1[C@@H](C2)N(C)CC4)OCO3
dose: 37.5 mg/kg/injection, schedule: Q04DX003 (ip), vehicle: distilled water + alcohol
  T/C: 56 % of control
dose: 75.0 mg/kg/injection, schedule: Q04DX003 (ip), vehicle: distilled water + alcohol
  T/C: 55 % of control
dose: 150.0 mg/kg/injection, schedule: Q04DX003 (ip), vehicle: distilled water + alcohol
  T/C: 68 % of control

## CN(C)C1C(=O)C(C(=O)NP(=O)(NCCCO)N(CCCl)CCCl)=C(O)C2(O)C(=O)C3=C(O)c4c(O)cccc4C(C)(O)C3CC12 (configuration not stated)
[3]
  T/C: -100 % of control and -98 % of control
[4]
  T/C: -100 % of control

## O=P(O)(NCCCl)NCCCl
dose: 37.5 mg/kg/injection, schedule: Q04DX003 (sc), vehicle: saline
  T/C: 31 % of control

## COc1ccc(N=C(C)C2C(=O)c3ccccc3C2=O)cc1
dose: 150.0 mg/kg/injection, schedule: Q04DX003 (ip), vehicle: DMSO
  T/C: 93 % of control
dose: 300.0 mg/kg/injection, schedule: Q04DX003 (ip), vehicle: DMSO
  T/C: 98 % of control
dose: 600.0 mg/kg/injection, schedule: Q04DX003 (ip), vehicle: DMSO
  T/C: 110 % of control
dose: 1200.0 mg/kg/injection, schedule: Q04DX003 (ip), vehicle: DMSO
  T/C: 105 % of control

## COC(=O)Nc1cn2cc(C(=O)c3cccs3)ccc2n1
dose: 300.0 mg/kg/injection, schedule: Q04DX003 (sc), vehicle: Klucel (hydroxypropylcellulose) (HPC)
  T/C: 70 % of control
dose: 600.0 mg/kg/injection, schedule: Q04DX003 (sc), vehicle: Klucel (hydroxypropylcellulose) (HPC)
  T/C: 74 % of control
dose: 1200.0 mg/kg/injection, schedule: Q04DX003 (sc), vehicle: Klucel (hydroxypropylcellulose) (HPC)
  T/C: 102 % of control
dose: 2400.0 mg/kg/injection, schedule: Q04DX003 (sc), vehicle: Klucel (hydroxypropylcellulose) (HPC)
  T/C: 96 % of control

## CN1COc2c(n(C)c(=O)[nH]c2=O)C1
dose: 100.0 mg/kg/injection, schedule: Q04DX003 (ip), vehicle: suspension in saline
  T/C: 85 % of control
dose: 200.0 mg/kg/injection, schedule: Q04DX003 (ip), vehicle: saline
  T/C: 92 % of control
dose: 200.0 mg/kg/injection, schedule: Q04DX003 (ip), vehicle: suspension in saline
  T/C: 65 % of control
dose: 400.0 mg/kg/injection, schedule: Q04DX003 (ip), vehicle: saline
  T/C: 103 % of control
dose: 400.0 mg/kg/injection, schedule: Q04DX003 (ip), vehicle: suspension in saline
  T/C: 68 % of control
dose: 800.0 mg/kg/injection, schedule: Q04DX003 (ip), vehicle: saline
  T/C: 102 % of control
dose: 800.0 mg/kg/injection, schedule: Q04DX003 (ip), vehicle: suspension in saline
  T/C: 72 % of control

From PubChem BioAssay AID298 (DTP/NCI, 2004)
